Nine compounds from patent US11649236B2, “Polycyclic carbamoylpyridone derivative” (Shionogi & Co., Ltd., priority 2018, dated 2023) can be followed below.

Series [1] relates to HIV. The series is described as follows: Anti-HIV activity (MT-4 cells, MTT). The series is classed as cell-based. The settings on record: Human immunodeficiency virus 1, MT4, 96 h, cultured 4 days. In a few lines: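 MT-4 cells (2.5×10^5 cells/mL) mixed with serial dilutions of test sample and HIV, cultured 4 days in CO2 incubator. MTT added for 1 h, cells lysed, absorbance read at 560 nm and 690 nm.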

The test system of series [2] is HIV mutant strain 1 (E138K/G140S/Q148H/N155H). The series is described as follows: Resistance evaluation test (HeLa-CD4 reporter), mutant strain 1. The format is cell-based. Conditions: FC=EC50 of mutant strain/EC50 of wild strain, HeLa-CD4 cells. The procedure:
(§1) Serial dilutions of a test sample were prepared in a96-well microplate (50 μL/well). 2.5×10^5 cells/mL of a HeLa-CD4 cell suspension was dispensed at 100 μL/well to the plate containing the test sample. Then, an HIV virus solution (wild strain and mutant strain) was dispensed at 50 μL/well. The plate was mixed with a plate mixer and cultured for 3 days in a CO2 incubator. The culture supernatant in each well was removed by suction. A cell lysis buffer in a reporter assay kit was dispensed at 100 μL/well, and the plate was frozen in a freezer (−80° C.). The plate frozen in a freezer was thawed at room temperature, then mixed with a plate mixer, and centrifuged at 1,200 rpm for 5 minutes. The supernatant of each well was dispensed at 20 μL/well to a 96-well microplate (BLACK). A chemiluminescent reagent in the reporter assay kit was dispensed at 100 μL/well and reacted at room temperature for approximately 1 hour. Then, luminescence intensity was measured using MicroBeta TRILUX. […] FC=EC50 of mutant strain/EC50 of wild strain (Results) FC for the mutant strain 1 (E138K/G140S/Q148H/N155H) and FC for the mutant strain 2 (E92Q/E138T/G140S/Q148H) are shown in the table.

Series [3] deals with HIV mutant strain 2 (E92Q/E138T/G140S/Q148H). The series is described as follows: Resistance evaluation test (HeLa-CD4 reporter), mutant strain 2. The format is cell-based. The settings on record: FC=EC50 of mutant strain/EC50 of wild strain, HeLa-CD4 cells. On the procedure: as §1
The nature of series [4]: Clearance evaluation test. The format is in vivo. The settings on record: rat, plasma, 1 umol/kg, rats, intravenous 1 μmol/kg. An excerpt:
Experimental Material and Method (1) Animals used: rats were used. (2) Rearing conditions: the rats were allowed to freely take solid feed and sterilized tap water. (3) Dose and grouping setting: a predetermined dose was intravenously administered. Groups were set as follows: Intravenous administration: 1 μmol/kg (n=2) (4) Preparation of dosing solution: the test sample was solubilized using a solvent of dimethyl sulfoxide/propylene glycol=1/1 and administered. (5) Administration method: the test sample was administered to the tail vein through a syringe with an injection needle. (6) Evaluation item: blood was collected over time, and the concentration of the compound of the present invention in plasma was measured using LC/MS/MS. (7) Statistical analysis: total body clearance (CLtot) and elimination half-life (t½) were calculated as to change in the concentration of the compound of the present invention in plasma by the moment analysis method.

Series [5] in a line: Metabolic stability test. The format is in vitro ADME, human. More on the design: key: % remaining vs amount at 0 min (=100%). The settings on record: compound 0.5 μmol/L, human liver microsomes 0.5 mg protein/mL, NADPH, 37° C., 30 minutes; amount at 0 minutes defined as 100%. The procedure: Commercially available pooled human liver microsomes were reacted with the compound of the present invention for a certain time. A residual rate was calculated by the comparison between the reacted sample and an unreacted sample to evaluate the degree at which the compound of the present invention is metabolized in the liver. A reaction was performed (oxidative reaction) at 37° C. for 0 minutes or 30 minutes in the presence of 1 mmol/L NADPH in 0.2 mL of a buffer (50 mmol/L Tris-HCl pH 7.4, 150 mmol/L potassium chloride, 10 mmol/L magnesium chloride) containing 0.5 mg protein/mL of human liver microsomes. After the reaction, 50 μL of the reaction solution was added to 100 μL of a solution of methanol/acetonitrile=1/1 (v/v) and mixed, and the mixture was centrifuged at 3000 rpm for 15 minutes. The compound of the present invention in the centrifugation supernatant was quantified by LC/MS/MS or solid-phase extraction (SPE)/MS. The amount of the compound of the present invention remaining after the reaction was calculated with the amount of the compound at 0 minutes of the reaction defined as 100%.
In general terms: Liver microsomes are vesicles of endoplasmic reticulum, rich in cytochrome P450 enzymes.

As usually defined, the EC50 is the concentration that produces a half-maximal response. The half-life is the time in which the quantity being followed falls by half. Usually clearance stands for a measure of how efficiently the substance is removed, as volume per time. In the case of `CN1C(=O)c2c(O)c(=O)c(C(=O)NCc3cccc(Cl)c3F)cn2N2C[C@@H]3CC[C@@H](C3)[C@@H]12` [II-028], in series [1], the EC50 came to 1.4 nM. Also, the “FC mutant strain 1” value in series [2] is given as 9.9. The “FC mutant strain 2” value in series [3] is 15. Besides, in series [4] (read-out: elimination half-life (t½) (converted)), the half-life was 1600 min. Besides, the clearance in series [4] (read-out: total body clearance (CLtot)) is 0.102 mL/min/kg. This compound came in with a residual rate in series [5] of 74.2.

The compound `C[C@H]1CC[C@H]2N(C)C(=O)c3c(O)c(=O)c(C(=O)NCc4ccc(Cl)cc4F)cn3N2C1` [II-090] came in with an EC50 in series [1] of 3.2 nM. Further, the “FC mutant strain 1” value in series [2] stood at 38. The “FC mutant strain 2” value in series [3] came to 25. The compound further came in with a residual rate in series [5] of 95.7.

For the compound `CCN1C(=O)c2c(O)c(=O)c(C(=O)NCc3ccc(F)cc3F)cn2N2C[C@@H]3CC[C@@H](O3)[C@@H]12` [II-102], in series [1], the EC50 is 0.61 nM. Besides, the “FC mutant strain 1” value in series [2] was found to be 47. Further, the “FC mutant strain 2” value in series [3] is reported as 45. This compound also had a residual rate in series [5] of 101.

In series [1], `CCN1C(=O)c2c(O)c(=O)c(C(=O)NCc3ccc(F)cc3F)cn2N2CC[C@H](C)C[C@@H]12` [II-071] had an EC50 of 0.74 nM. For the same compound, the “FC mutant strain 1” value in series [2] stood at 27. For the same compound, the “FC mutant strain 2” value in series [3] is 22. In series [5], this compound showed a residual rate of 104.

In series [1], `CC(C)N1C(=O)c2c(O)c(=O)c(C(=O)NCc3ccc(F)cc3F)cn2N2CCOC[C@@H]12` [II-026] registered an EC50 of 0.18 nM. The “FC mutant strain 1” value in series [2] turned out to be 8.1. For the same compound, in series [3], the “FC mutant strain 2” value is on record as 14. The residual rate in series [5] worked out at 87.5.

Turning to `CCN1C(=O)c2c(O)c(=O)c(C(=O)NCc3ccc(F)cc3F)cn2N2C[C@@H](COC)C[C@@H]12` [II-041], the EC50 in series [1] was found to be 0.66 nM. In series [2], the “FC mutant strain 1” value is reported as 15. The “FC mutant strain 2” value in series [3] is on record as 28. Besides, the residual rate in series [5] turned out to be 94.3.

Take `CCN1C(=O)c2c(O)c(=O)c(C(=O)NCc3c(F)cc(F)cc3F)cn2N2C[C@@H](C)C[C@@H]12` [II-049]: in series [1], the EC50 stood at 0.77 nM. For the same compound, the “FC mutant strain 1” value in series [2] was found to be 18. For the same compound, in series [3], the “FC mutant strain 2” value was 17. Moreover, the residual rate in series [5] was found to be 83.2.

For the compound `CC(C)N1C(=O)c2c(O)c(=O)c(C(=O)NCc3ccccc3F)cn2N2C[C@@H]3CC[C@@H](O3)[C@@H]12` [II-013], in series [1], a half-maximal effect (EC50) was put at 0.4 nM. Further, in series [2], the “FC mutant strain 1” value turned out to be 5.6. Further, the “FC mutant strain 2” value in series [3] came to 6.4. This compound yielded a residual rate in series [5] of 87.

`COC[C@@H]1CC[C@H]2N(C(C)C)C(=O)c3c(O)c(=O)c(C(=O)NCc4ccccc4F)cn3N12` [II-009] had an EC50 in series [1] of 2.6 nM. In addition, the “FC mutant strain 1” value in series [2] is 4.6. For the same compound, the “FC mutant strain 2” value in series [3] came out at 7.7. The compound also showed a residual rate in series [5] of 80.8.
